These results are taken from US20130071482A1, “BLOCK COPOLYMER CROSS-LINKED NANOASSEMBLIES AS MODULAR DELIVERY VEHICLES” (THE UNIVERSITY OF KENTUCKY RESEARCH FOUNDATION, priority 2011, published 2013).

Series [1] concerns human non-small cell lung cancer A549 cell line. Description: Cytotoxicity assay (resazurin cell viability). In kind it is cell-based. To be noted: A549 cells. Here is the method:
A human non-small cell lung cancer A549 cell line was used to determine the cytotoxicity of empty nanoassemblies, DOX-loaded nanoassemblies, and free DOX. Cells were seeded in a 96-well plate (5,000 cells/well) in 100 μL F12K cell culture medium containing 10% FBS. After 24 hours, serial dilutions of the samples were added to the cell plate. Cells were then incubated at 37° C., 5% CO2, for 72 hours, followed by cell viability measurement using a resazurin assay that indicates mitochondrial metabolic activity in live cells. Resazurin solution in PBS (10 μL, 1 mM) was added to the sample-treated cells at the end of the 72-hour treatment period. Three hours later, the fluorescence of resorufin, metabolited resazurin, was measured at 560 nm (excitation)/590 nm (emission). The half maximal inhibitory concentration (IC50) was calculated with Prism software (GraphPad, USA).
On the technique in general: The colour change of resazurin is a common sign of viable cells or microbes.

Series [2] is described as follows: Drug release experiment (dialysis of DOX-loaded particles, sink condition). It counts as physicochemical. To be noted: 37° C., from AUC of release-time curve, normalized to initial drug loading (100%). Here is the method: Proton nuclear magnetic resonance (^1H-NMR, Varian, 400 MHz) measurements were used to determine the compositions of block copolymers and nanoassemblies in DMSO-d6 and D2O, respectively. The number average molecular weights (Mn) of block copolymers and nanoassemblies were calculated by gel permeation chromatography (GPC, Shimadzu LC20, Japan) equipped with RI and UV detectors, using PEG standard and a phosphate buffered saline (PBS, 1×) mobile phase. Particle sizes of nanoassemblies were determined by dynamic light scattering (DLS, Zetasizer Nano 90, Malvern, UK) measurements at a 173° fixed angle. All samples were prepared in aqueous solutions at 2 mg/mL and filtered through 0.22 μm filters prior to GPC and DLS analyses. DOX loading and release were quantified using ultraviolet-visible spectrophotometry spectroscopy (UV-Vis, absorbance at 480 nm, SpectraMax M5, Molecular Devices, USA).
All particles entrapping DOX were dissolved in deionized water (0.5 mg/mL), and transferred to six dialysis cassettes (MWCO 10 kDa). […] Drug release patterns were monitored under the sink condition as the volume of dialysis medium was maintained 3,000 times greater (5 L) than the volume of the sample solution in the dialysis cassettes (1.65 mL/cassette, n=3). […] DOX remaining in each dialysis cassette was measured at 0, 1, 3, 6, 10, 24, 34, and 48 h. […]

As for `COc1cccc2c1C(=O)c1c(O)c3c(c(O)c1C2=O)C[C@@](O)(C(=O)CO)C[C@@H]3O[C@H]1C[C@H](N)[C@H](O)[C@H](C)O1.Cl` [Free DOX, doxorubicin hydrochloride], the IC50 in series [1] (72 hours incubation, resazurin assay, DOX equivalent) stood at 530 ± 200 nM. The same compound displayed a Relative cytotoxicity in series [1] (IC50 relative to free DOX (fold)) of 1.00. Besides, the “Accumulated drug release at pH 5.0 in 48 h” value in series [2] (pH 5.0, 48 h) stood at 100%. Besides, in series [2] (pH 7.4, 48 h), the “Accumulated drug release at pH 7.4 in 48 h” value is 100%.

The term IC50 denotes the concentration at which inhibition is half-maximal.
